Experimental findings from patent publication US9788539B2, “Platelet protection solution having beta-galactosidase and sialidase inhibitors” (Velico Medical, Inc., priority 2011, dated 2017) are described below.

Each structure is given as a SMILES string. Entries after “also recorded” stand apart in the source; their conditions may differ.

The subject of one test is bacteria. Description: Bacterial detection in stored platelet concentrate with SLP reagent, time of color detection (TOCD). It counts as cell-based. The conditions noted are these: for time of color detection (TOCD): 1 mM DANA. The method, then: To increase the formation of planktonic bacteria, thereby improving the sensitivity of the bacterial detection, platelet storage studies were performed in a mixture of PAS (INTERSOL® solution) and plasma (80:20). Many bacterial detection methods are available. We used SLP Reagent Set (297-51501, Wako Chemicals USA), containing silkworm larvae plasma (SLP) and […] (DOPA), reconstituted according to manufacturer's instruction and stored as 100 μL aliquots at -80° C. When a sample is mixed with SLP reagent, peptidoglycan derived from the cell wall of Gram-positive and Gram-negative bacteria in the sample initiates a series of reactions including activation of multiple serine proteases called prophenoloxidase (proPO) cascade. The phenoloxidase (PO) produced in the cascade reactions oxidizes the substrate in the SLP reagent, […] (DOPA), to form melain (dark blue). The bacteria concentration in the test sample is inversely proportional to the onset time of color development: shorter time=higher concentration of bacteria; longer time=lower concentration of bacteria.
One bag of a platelet concentrate was split to two 50-mL Falcon tubes, PGE1 was added. After centrifugation at 900×g for 10 min, 80% of the supernatant (PPP) (relative to the total volume) was removed, and replaced with equal volume of platelet protection solution. The platelet was thoroughly re-suspended. The platelet suspensions were pooled and split to 4 aliquots in 15-mL Falcon tubes. DANA (1 mM) in PBS was added to two tubes while only PBS was added to the other tubes. One pair of samples with and without DANA was stored at 4° C. The second pair was kept at RT (22° C.-24° C.). Aliquots of 1.0 mL were removed on Day 0 and Day 9, and immediately pelleted (5 min, 15,800×g). […]
The pellet containing both platelets and bacteria, recovered from 1-mL aliquots sampled at different time points, was re-suspended in 100 μL of 0.1 M NaOH, and heated for 10 min at 70° C. […] The samples were left on the bench, and color development was monitored. The time of color detection (TOCD) was recorded.

A further test concerns human platelets. Description: Human platelets stored in plasma at RT, size and density by FSC/SSC. It counts as cell-based. The conditions noted are these: 72 h at RT in plasma.
For test [1], the system named is platelet GPIbα and GPV receptor surface expression. Nature of the test: Recombinant TACE-mediated GPIbα and GPV shedding from platelets. It counts as cell-based, mouse. The conditions noted are these: GPIbα and GPV; GM6001 100 μM on sialidase-treated platelets.
The subject of test [2] is mouse platelets. Description: Surface receptor loss of mouse platelets stored at room temperature. It counts as cell-based. The conditions noted are these: DANA added during storage.
Test [3] deals with mouse platelets. Nature of the test: Sialidase-induced β-galactose exposure on platelets, lectin binding by flow cytometry. It counts as cell-based. The conditions noted are these: mouse platelets, 5 mU α2-3,6,8,9-sialidase.

On to `CC(=O)NC1C(O)C=C(C(=O)O)OC1C(O)C(O)CO` (centres unmarked) [DANA], for which the “bacterial growth in RT stored platelet samples” value in the test with bacteria (DANA, compared with 4° C. storage) is “inhibits bacterial growth as effectively as 4° C.-storage”. The “time of color detection (TOCD)” value was around 50 min in the test on bacteria (Day 9, stored at 4° C.) and around 34 min in the test on bacteria (Day 9, stored at RT, INTERSOL/plasma 80:20 (15 min without DANA)). The “platelet shape by side and forward scatter” value in the test with human platelets (0.5 mM DANA) is given as “visible improvement of the platelet shape”. The “mean fluorescence intensity (MFI) of platelet count/SSC histogram” value with human platelets (with DANA vs without) was “increased”. Also, the “receptor shedding by rTACE in presence of inhibitor” value in test [1] is reported as “completely prevented”. In addition, in the test with mouse platelets [2], the “GPIbα and GPV receptor expression of room temperature stored mouse platelets” value was “preserved receptors expression; also recorded: inhibited”. The “β-galactose exposure induced by sialidase in presence of inhibitor” value in the test with mouse platelets [3] is listed as “completely inhibited; also recorded: inhibits the exposure of β-galactose”.
